Test results reported in ChEMBL document CHEMBL5291721, “A preclinical secondary pharmacology resource illuminates target-adverse drug reaction associations of marketed drugs” (Nat Commun, 2023).

Experiments:
Adenosine receptor A2a = Adenosine receptor A2a (Homo sapiens, UniProt P29274)
Adenosine receptor A3 = biological target: T1, Adenosine receptor A3 (Homo sapiens, UniProt P0DMS8)
T1 sequence (P0DMS8 whole entry): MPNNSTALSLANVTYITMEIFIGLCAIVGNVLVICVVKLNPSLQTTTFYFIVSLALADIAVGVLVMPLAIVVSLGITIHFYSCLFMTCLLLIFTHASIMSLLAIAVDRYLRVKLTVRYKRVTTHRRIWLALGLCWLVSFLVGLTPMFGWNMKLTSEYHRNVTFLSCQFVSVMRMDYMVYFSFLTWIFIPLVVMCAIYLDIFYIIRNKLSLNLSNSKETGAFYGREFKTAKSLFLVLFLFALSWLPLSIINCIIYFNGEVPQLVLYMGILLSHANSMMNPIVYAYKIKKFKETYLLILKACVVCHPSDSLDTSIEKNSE

[1] = biological target: T2, Cholecystokinin receptor type A (Homo sapiens, UniProt P32238)
T2 sequence (P32238 whole entry): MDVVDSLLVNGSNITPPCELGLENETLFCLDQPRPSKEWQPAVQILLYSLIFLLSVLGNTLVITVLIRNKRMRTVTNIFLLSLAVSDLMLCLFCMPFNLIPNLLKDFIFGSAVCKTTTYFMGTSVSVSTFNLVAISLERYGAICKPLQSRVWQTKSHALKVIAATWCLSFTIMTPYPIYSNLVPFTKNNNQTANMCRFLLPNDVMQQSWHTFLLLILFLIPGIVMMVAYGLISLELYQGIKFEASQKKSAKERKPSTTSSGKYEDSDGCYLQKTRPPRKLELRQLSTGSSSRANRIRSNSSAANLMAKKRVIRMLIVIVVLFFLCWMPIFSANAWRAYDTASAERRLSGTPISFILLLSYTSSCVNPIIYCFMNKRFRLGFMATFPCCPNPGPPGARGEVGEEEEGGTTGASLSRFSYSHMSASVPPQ

[2] = biological target: T3, Muscarinic acetylcholine receptor M2 (Homo sapiens, UniProt P08172); type: functional, cell-based
T3 sequence (P08172 whole entry): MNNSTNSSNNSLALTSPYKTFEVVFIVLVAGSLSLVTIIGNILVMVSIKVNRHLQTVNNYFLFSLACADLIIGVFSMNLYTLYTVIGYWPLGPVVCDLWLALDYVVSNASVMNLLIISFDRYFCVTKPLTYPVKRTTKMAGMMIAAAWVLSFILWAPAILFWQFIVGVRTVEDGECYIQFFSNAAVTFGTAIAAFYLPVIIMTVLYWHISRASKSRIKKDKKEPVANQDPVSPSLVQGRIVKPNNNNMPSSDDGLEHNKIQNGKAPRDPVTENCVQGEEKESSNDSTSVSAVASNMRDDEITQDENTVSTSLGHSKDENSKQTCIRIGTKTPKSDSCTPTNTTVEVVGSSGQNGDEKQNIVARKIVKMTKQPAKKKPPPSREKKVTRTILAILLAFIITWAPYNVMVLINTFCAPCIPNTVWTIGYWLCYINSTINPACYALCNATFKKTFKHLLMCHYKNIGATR

[3] = biological target: Muscarinic acetylcholine receptor M3 (Homo sapiens, UniProt P20309)
Histamine H1 receptor = Histamine H1 receptor (Homo sapiens, UniProt P35367)
[4] = biological target: 5-hydroxytryptamine receptor 2B (Homo sapiens, UniProt P41595); type: functional, cell-based
[5] = biological target: Voltage-gated inwardly rectifying potassium channel KCNH2 (Homo sapiens, UniProt Q12809); type: functional
Progesterone receptor [6] = biological target: T4, Progesterone receptor (Homo sapiens, UniProt P06401); type: functional
T4 sequence (P06401 whole entry): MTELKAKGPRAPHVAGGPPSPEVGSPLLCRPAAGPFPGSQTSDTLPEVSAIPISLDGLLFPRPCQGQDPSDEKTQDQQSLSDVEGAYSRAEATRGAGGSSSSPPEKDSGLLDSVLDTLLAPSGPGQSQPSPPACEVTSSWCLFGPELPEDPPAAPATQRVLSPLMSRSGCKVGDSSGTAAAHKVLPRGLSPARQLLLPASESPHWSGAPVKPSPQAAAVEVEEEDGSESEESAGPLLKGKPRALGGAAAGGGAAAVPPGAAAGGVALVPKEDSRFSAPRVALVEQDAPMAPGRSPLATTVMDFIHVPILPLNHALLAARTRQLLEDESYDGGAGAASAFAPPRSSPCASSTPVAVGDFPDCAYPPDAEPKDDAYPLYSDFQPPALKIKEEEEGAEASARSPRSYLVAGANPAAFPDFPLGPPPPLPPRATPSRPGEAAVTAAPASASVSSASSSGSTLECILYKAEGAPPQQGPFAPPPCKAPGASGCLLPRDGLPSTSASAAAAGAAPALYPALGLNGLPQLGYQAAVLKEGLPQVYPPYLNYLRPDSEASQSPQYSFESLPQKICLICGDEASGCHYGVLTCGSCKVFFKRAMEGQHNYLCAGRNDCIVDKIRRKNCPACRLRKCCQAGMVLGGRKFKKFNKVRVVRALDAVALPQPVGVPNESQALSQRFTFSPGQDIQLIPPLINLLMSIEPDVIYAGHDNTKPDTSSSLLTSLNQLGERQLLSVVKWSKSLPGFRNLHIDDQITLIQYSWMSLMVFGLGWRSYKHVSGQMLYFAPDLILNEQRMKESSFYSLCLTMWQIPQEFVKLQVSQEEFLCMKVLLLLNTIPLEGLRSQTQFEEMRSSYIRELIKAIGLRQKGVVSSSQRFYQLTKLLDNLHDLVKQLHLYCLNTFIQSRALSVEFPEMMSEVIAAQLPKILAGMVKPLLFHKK

Progesterone receptor [7] = biological target: T4, Progesterone receptor; type: functional; remark: listed apart in the source
Thromboxane A2 receptor = biological target: T5, Thromboxane A2 receptor (Homo sapiens, UniProt P21731)
T5 sequence (P21731 whole entry): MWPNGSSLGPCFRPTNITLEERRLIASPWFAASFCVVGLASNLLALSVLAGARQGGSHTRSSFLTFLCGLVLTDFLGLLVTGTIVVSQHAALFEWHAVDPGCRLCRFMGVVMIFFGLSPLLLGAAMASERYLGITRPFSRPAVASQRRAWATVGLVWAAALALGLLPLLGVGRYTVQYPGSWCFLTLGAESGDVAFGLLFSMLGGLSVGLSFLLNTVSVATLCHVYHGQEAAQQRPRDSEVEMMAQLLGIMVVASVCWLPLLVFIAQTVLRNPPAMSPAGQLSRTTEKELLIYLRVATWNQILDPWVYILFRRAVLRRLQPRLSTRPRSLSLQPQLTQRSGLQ

[8] = biological target: Sodium-dependent noradrenaline transporter (Homo sapiens, UniProt P23975)
Further: assay procedure not described here.

Chain of Adenosine receptor A2a (P29274 whole entry): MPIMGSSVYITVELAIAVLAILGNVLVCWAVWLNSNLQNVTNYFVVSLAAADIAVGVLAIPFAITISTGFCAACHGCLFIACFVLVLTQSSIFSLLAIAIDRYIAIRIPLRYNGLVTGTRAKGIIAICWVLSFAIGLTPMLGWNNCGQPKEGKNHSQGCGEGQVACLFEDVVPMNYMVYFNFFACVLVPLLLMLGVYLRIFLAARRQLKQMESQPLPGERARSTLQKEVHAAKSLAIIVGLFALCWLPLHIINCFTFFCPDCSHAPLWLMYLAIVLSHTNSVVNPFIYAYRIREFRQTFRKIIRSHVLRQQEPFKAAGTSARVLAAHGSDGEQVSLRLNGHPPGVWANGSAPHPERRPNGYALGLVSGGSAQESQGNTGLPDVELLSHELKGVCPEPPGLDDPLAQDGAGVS
Chain of 5-hydroxytryptamine receptor 2B (P41595 whole entry): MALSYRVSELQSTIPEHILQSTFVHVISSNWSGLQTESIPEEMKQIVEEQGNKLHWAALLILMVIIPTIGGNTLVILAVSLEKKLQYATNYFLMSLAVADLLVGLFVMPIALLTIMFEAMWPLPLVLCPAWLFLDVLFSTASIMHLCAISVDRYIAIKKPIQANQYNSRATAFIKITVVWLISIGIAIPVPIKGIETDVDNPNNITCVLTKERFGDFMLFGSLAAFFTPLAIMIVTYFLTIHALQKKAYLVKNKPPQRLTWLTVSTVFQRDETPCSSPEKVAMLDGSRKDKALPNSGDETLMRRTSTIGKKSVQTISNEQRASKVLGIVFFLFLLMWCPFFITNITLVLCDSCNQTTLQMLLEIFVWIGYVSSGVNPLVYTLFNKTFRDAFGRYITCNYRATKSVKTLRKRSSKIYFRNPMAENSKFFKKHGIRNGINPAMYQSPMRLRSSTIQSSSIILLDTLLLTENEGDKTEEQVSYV
Chain of Voltage-gated inwardly rectifying potassium channel KCNH2 (Q12809 whole entry): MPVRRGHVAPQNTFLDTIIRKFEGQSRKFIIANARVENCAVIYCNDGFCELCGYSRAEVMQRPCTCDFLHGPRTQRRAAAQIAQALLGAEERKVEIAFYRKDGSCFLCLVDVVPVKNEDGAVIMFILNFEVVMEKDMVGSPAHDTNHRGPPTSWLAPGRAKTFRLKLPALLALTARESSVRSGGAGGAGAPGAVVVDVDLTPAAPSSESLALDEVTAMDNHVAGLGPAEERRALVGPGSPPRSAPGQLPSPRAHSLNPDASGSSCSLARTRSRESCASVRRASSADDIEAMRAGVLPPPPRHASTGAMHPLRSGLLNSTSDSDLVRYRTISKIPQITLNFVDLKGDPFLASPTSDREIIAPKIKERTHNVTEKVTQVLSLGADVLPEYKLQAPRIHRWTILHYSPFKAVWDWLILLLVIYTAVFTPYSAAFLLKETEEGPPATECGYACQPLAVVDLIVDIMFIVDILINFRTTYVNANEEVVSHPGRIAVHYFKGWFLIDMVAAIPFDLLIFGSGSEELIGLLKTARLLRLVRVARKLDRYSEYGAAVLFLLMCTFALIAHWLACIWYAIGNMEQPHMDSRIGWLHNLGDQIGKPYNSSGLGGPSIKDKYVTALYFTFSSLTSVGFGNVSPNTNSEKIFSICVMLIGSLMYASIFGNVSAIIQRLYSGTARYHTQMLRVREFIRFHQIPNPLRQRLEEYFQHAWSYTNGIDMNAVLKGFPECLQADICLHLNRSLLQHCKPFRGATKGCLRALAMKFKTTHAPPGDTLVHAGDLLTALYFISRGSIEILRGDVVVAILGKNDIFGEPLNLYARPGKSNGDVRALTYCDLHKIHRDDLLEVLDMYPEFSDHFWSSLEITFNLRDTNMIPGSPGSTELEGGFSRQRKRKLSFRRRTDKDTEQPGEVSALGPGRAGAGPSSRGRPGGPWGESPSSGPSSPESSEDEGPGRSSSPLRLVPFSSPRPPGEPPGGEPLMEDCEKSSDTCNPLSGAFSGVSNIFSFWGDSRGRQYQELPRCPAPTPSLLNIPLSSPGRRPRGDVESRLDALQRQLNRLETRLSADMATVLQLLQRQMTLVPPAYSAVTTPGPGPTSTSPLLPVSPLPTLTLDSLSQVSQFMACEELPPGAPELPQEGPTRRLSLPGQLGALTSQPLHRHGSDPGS
Chain of Sodium-dependent noradrenaline transporter (P23975 whole entry): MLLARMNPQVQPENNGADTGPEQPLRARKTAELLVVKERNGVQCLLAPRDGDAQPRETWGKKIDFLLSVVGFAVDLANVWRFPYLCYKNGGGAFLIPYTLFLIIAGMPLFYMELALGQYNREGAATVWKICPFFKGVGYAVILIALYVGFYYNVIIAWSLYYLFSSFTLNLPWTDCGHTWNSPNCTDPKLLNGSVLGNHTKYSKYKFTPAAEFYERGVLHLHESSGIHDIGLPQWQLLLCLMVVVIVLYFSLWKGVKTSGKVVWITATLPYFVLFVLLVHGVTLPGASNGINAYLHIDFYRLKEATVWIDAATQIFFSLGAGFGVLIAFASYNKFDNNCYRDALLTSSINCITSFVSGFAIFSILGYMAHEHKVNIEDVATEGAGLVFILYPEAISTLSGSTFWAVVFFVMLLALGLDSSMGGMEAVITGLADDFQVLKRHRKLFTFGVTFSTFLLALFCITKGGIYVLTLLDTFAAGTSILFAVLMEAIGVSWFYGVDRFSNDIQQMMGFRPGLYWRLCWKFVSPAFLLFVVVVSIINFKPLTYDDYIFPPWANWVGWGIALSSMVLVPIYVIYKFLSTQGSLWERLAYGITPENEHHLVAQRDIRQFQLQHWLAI
Chain of Muscarinic acetylcholine receptor M3 (P20309 whole entry): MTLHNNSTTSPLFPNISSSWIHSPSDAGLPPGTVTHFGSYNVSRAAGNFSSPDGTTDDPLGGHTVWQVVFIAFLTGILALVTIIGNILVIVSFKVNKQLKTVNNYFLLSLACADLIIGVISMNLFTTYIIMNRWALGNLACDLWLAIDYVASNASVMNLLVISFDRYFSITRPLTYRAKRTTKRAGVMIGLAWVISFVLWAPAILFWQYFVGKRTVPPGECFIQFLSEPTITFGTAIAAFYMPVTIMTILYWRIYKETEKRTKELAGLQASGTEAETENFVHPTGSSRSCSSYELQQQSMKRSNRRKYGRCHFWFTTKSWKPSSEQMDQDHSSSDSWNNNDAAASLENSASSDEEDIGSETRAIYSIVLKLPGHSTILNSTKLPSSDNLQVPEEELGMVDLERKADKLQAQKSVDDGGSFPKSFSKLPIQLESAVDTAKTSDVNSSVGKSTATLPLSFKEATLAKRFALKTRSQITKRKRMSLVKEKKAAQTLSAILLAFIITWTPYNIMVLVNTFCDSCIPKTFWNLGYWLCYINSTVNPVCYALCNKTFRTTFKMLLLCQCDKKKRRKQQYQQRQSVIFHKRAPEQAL
Chain of Histamine H1 receptor (P35367 whole entry): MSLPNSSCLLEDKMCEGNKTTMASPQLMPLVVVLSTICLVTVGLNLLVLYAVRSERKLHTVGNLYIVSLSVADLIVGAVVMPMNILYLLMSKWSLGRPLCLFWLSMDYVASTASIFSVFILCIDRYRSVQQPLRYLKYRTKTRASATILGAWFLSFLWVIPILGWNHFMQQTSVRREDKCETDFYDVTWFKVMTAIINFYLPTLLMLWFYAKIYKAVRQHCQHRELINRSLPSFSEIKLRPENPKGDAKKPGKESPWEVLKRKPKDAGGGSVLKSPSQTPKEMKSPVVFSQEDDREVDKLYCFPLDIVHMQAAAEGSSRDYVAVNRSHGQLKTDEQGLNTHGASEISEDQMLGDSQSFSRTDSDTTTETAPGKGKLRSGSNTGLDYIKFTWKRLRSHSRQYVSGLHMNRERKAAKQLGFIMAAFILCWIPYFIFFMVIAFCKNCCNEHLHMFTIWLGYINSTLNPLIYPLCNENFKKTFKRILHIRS

SMILES | AC50 (Adenosine receptor A2a) | AC50 (Adenosine receptor A3) | AC50 [1] | AC50 [2] | AC50 [3] | AC50 (Histamine H1 receptor) | AC50 [4] | AC50 [5] | AC50 (Progesterone receptor [6]) | AC50 (Progesterone receptor [7]) | AC50 (Thromboxane A2 receptor) | AC50 [8]
C/C(=C\C(=O)OCCCCCCCCC(=O)O)C[C@@H]1OC[C@H](C[C@@H]2O[C@H]2[C@@H](C)[C@H](C)O)[C@@H](O)[C@H]1O [MUPIROCIN] | > 10 µM | > 10 µM | > 10 µM | > 10 µM | > 30 µM | > 10 µM | > 10 µM | > 30 µM | > 10 µM | > 10 µM | > 10 µM | > 30 µM
O=C(O)c1ccccc1Nc1cc(Cl)ccc1C(=O)O [LOBENZARIT] | > 30 µM | > 30 µM | > 30 µM | > 30 µM | > 30 µM | > 30 µM | > 30 µM | > 30 µM | > 30 µM | > 30 µM | > 30 µM | > 30 µM
C#CCOc1ccc(N)cc1C(=O)NCCCC [PARSALMIDE] | > 30 µM | > 30 µM | > 30 µM | > 30 µM | > 30 µM | > 30 µM | > 30 µM | > 30 µM | > 30 µM | > 30 µM | > 30 µM | > 30 µM
CCN1CCCC1CNC(=O)c1cc(S(=O)(=O)CC)c(N)cc1OC (stereo unspecified) [AMISULPRIDE] | > 30 µM | > 30 µM | – | > 30 µM | > 30 µM | 30 µM | – | – | > 30 µM | > 30 µM | – | > 30 µM
C=C[C@@]1(C)CC(=O)[C@]2(O)[C@@]3(C)[C@@H](O)CCC(C)(C)[C@@H]3[C@H](O)[C@H](OC(C)=O)[C@@]2(C)O1 [COLFORSIN] | > 30 µM | > 30 µM | > 30 µM | 1.9 µM | > 30 µM | > 30 µM | > 30 µM | > 30 µM | > 30 µM | > 30 µM | > 30 µM | > 30 µM
COc1cc2c(cc1OC)C(CCc1ccc(Cl)cc1)N(C)CC2 (stereo unspecified) [METHOPHOLINE] | > 30 µM | > 30 µM | > 30 µM | > 10 µM | > 30 µM | > 10 µM | > 10 µM | – | > 30 µM | > 30 µM | > 30 µM | > 30 µM
COc1cc2ncnc(Nc3ccc(F)c(Cl)c3)c2cc1NC(=O)/C=C/CN1CCCCC1 [DACOMITINIB ANHYDROUS] | > 30 µM | 21 µM | – | > 30 µM | – | > 30 µM | – | – | > 30 µM | > 10 µM | – | 14 µM
COc1ccc(-c2noc(CC(=O)O)c2-c2ccc(OC)cc2)cc1 [MOFEZOLAC] | > 30 µM | > 30 µM | > 30 µM | > 30 µM | > 30 µM | > 30 µM | > 30 µM | > 30 µM | > 30 µM | > 30 µM | > 30 µM | > 30 µM
C[N@+]1(CCF)[C@@H]2CC[C@H]1C[C@@H](OC(=O)C(O)(c1ccccc1)c1ccccc1)C2 | > 30 µM | > 30 µM | > 30 µM | > 30 µM | 0.0031 µM | 15 µM | > 30 µM | 2.38 µM | > 30 µM | > 30 µM | > 30 µM | > 30 µM
Oc1ccc2c(c1)[C@@]13CCCC[C@@]1(O)[C@@H](C2)N(CC1CCC1)CC3 [BUTORPHANOL] | > 30 µM | > 30 µM | > 30 µM | > 30 µM | > 30 µM | > 30 µM | > 30 µM | 12 µM | > 30 µM | > 30 µM | – | > 30 µM
OCc1cc(C(O)CNCCCCCCOCCCCc2ccccc2)ccc1O (stereo unspecified) [SALMETEROL] | > 30 µM | > 30 µM | > 30 µM | – | > 30 µM | > 10 µM | > 10 µM | 8.1 µM | > 30 µM | > 30 µM | > 30 µM | 4.3 µM
O=C1CN=C(c2ccccn2)c2cc(Br)ccc2N1 [BROMAZEPAM] | > 10 µM | > 10 µM | > 10 µM | > 10 µM | > 30 µM | > 10 µM | > 10 µM | > 30 µM | > 10 µM | > 10 µM | > 10 µM | > 10 µM
CC(=O)O[C@H](CC(=O)[O-])C[N+](C)(C)C [ACETYLCARNITINE] | > 30 µM | > 30 µM | > 30 µM | > 30 µM | > 30 µM | 5.2 µM | > 30 µM | > 30 µM | > 30 µM | > 30 µM | > 30 µM | > 30 µM
CN(C(=O)c1c(O)c2ccccc2n(C)c1=O)c1ccccc1 [ROQUINIMEX] | > 30 µM | > 30 µM | – | – | – | > 30 µM | – | – | > 30 µM | 29 µM | – | > 30 µM
CC1=C(C)C(=O)C(C(CCCCCC(=O)O)c2ccccc2)=C(C)C1=O (stereo unspecified) [SERATRODAST] | > 30 µM | > 30 µM | > 30 µM | > 30 µM | > 30 µM | > 30 µM | > 30 µM | > 30 µM | > 30 µM | > 30 µM | – | > 30 µM
